From patent publication US20220304953A1, “PHARMACEUTICAL DOSAGE FORM COMPRISING METFORMIN AND CALCIUM CITRATE” (DSM IP ASSETS B.V., priority 2019, published 2022)

Assays:
[1] = compared to calcium carbonate; cited from earlier work
[2] = Tablet hardness (Krämer UTS4 1, force needed to break a tablet axially); assay type: physicochemical; details: tablets of example 2 with the named calcium salt, Prosolv SMCC90 binder; in words
Protocol: For compressing the tablets, a single punch press (Korsch XP-1, available at Korsch, Berlin) was used.
Tablet hardness was then measured using a Krämer UTS4 1 apparatus.
Said four tablet mixtures were compressed into tablets, similar to example 2. Tablet hardness was then measured.
Tablet hardness was measured as described in USP <1217> and EP<2.9.8.> with a Krämer UTS4 1 tester (Kraemer Elektronik GmbH, Darmstadt, Germany). The inventors measured the force needed to break a tablet axially. Presented are the average values of 10 measurements.

Compound	bioavailability [1]	tablet hardness (compression profiles, FIG. 1) [2]
O=C([O-])CC(O)(CC(=O)[O-])C(=O)[O-].O=C([O-])CC(O)(CC(=O)[O-])C(=O)[O-].[Ca+2].[Ca+2].[Ca+2] [calcium citrate]	superior bioavailability than calcium carbonate	–
anhydrous calcium citrate	–	a lot worse
